The target of one assay is T1, ErbB2 (Homo sapiens, UniProt P04626).
T1 construct: made in house; host or cells: baculovirus expression system
Description: ErbB-2 substrate phosphorylation assay (HTRF). The format is biochemical. Put shortly:
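Baculovirus-expressed EGFR (0.8 nM) or ErbB2 (10 nM) in enzyme mix, preincubated 1 h at 20 °C with compound (0.00027–47.6 μM final), then 90 min at 20 °C with substrate mix of 20 μM ATP, 0.8 uM biotinylated Peptide C, MnCl2, MOPS pH 7.5. Phosphotyrosine by HTRF; pIC50 reported.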

A further assay relates to Colo205 tumor cells. The assay can be described thus: Cell growth inhibition assay (CellTiter-Glo), Colo205. The format is cell-based, Human. The settings on record: Homo sapiens, COLO 205, 72 h; 3 days incubation. Put shortly: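 Readout was CellTiter-Glo luminescence (total ATP, surrogate for cell number) after 3-day exposure at 37° C, 5% CO2 to 1:3 serial compound dilutions in 0.2% final DMSO. Seeding was 500 cells/well; IC50 derived by 4-parameter fit relative to vehicle-treated wells.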
(Cellular ATP, detected with luciferase, serves as a proxy for viable cell number.)

In another assay the test system is A375P F11s tumor cells. Description: Cell growth inhibition assay (CellTiter-Glo), A375P F11s. The format is cell-based, Human. The note with it: for IC50: Homo sapiens. The protocol: (§1) Human breast tumor cells (BT474) were cultured in RPMI (Mediatech […]), containing 10% FBS (JRH Biosciences 12176) and 1% penicillin-streptomycin (Invitrogen 15140). Human head and neck tumor cells (HN5) were cultured in high glucose DMEM (Mediatech 50-013-PB) containing 10% FBS and 1% penicillin-streptomycin. Human colon tumor cells (Colo205) were cultured in RPMI (Mediatech 50-020-PB) containing 10% FBS and 1% penicillin-streptomycin. Human melanoma cancer cells (SK-MEL-28) were cultured in EMEM with nonessential amino acids (Mediatech 50-011-PB) containing 10% FBS, 1% sodium pyruvate (JT Baker 3354-04), and 1% penicillin-streptomycin. Human melanoma cancer cells (A375P F11s) were cultured in RPMI (Mediatech 50-020-PB) containing 10% FBS, 1% sodium pyruvate, and 1% penicillin-streptomycin. Human colon cancer cells (HT-29) were cultured in high glucose DMEM (Mediatech 50-013-PB) containing 10% FBS and 1% penicillin-streptomycin. Human melanoma cancer cells (SK-MEL-3) were cultured in McCoy's 5A (50-025-PB) containing 15% FBS, and 1% penicillin-streptomycin. All cell lines were maintained at 37° C. in a humidified 5% CO2, 95% air incubator. Cells were harvested using trypsin/EDTA (Invitrogen 25200), counted using a haemocytometer, and plated. For 96-well assays (using white full-area NUNC plates cat. #136102), cells were plated in 105 μL at the following densities (cells/well): HNS, 500; Colo 205, 500; SK-MEL-28, 500; A375P F11s, 500; HT-29, 500; SK-MEL-3, 500; and BT474, 3000. For 384-well assays (white full-area NUNC plates, cat. #781080), cells were plated in 48 μL at the following densities (cells/well): HNS, 500; Colo205, 500; SK-MEL-28, 500; A375P F11s, 500; HT-29, 500; SK-MEL-3, 500; and BT474, 2000.
(§2) The next day, compounds were diluted as follow: For 96-well assays, 13.5 μL of compound in DMSO were diluted using nine (9) serial 1:3 dilutions of 4.5 μL in 9 of DMSO. Medium (270 μL/well of RPMI with 10% FBS and 1% penicillin-streptomycin) was added to the plates. Aliquots (7 μL) were added to cells in the final assay giving a final DMSO concentration of 0.2%. For 384-well assays, 15 μL of compound in DMSO were diluted using nine (9) serial 1:3 dilutions of 5 μL in 10 μL of DMSO, followed by a further dilution of 5 μL of compound with 95 μL of medium, of which 2 μL were added to cells in the final assay giving a final DMSO concentration of 0.2%. Cells were incubated at 37° C., 5% CO2 for 3 days.
(§3) Total ATP was measured (as a surrogate estimate of cell number) using CellTiter-Glo® reagent (Promega G7571). Briefly, plates were removed from the incubator and allowed to equilibrate to room temperature for 30 minutes. CellTiter-Glo® (25 μL or 55 μL for 384-well or 96-well assays, respectively) reagent was added to each well and plates were shaken on an orbital plate shaker for 2 minutes. Plates were incubated without shaking for a further 30 minutes and read on an LJL Analyst GT reader in luminometer mode with an integration time of 0.5 seconds per well. Percent inhibition of cell growth was calculated relative to DMSO vehicle-treated control wells. Concentration of compound required to give 50% inhibition of vehicle-treated control cell growth (IC50) was interpolated using a 4-parameter fit for determining IC50 using the following equation: Y=A +((B−A)/(1+((C/X)̂D))) where […].

In a further assay the test system is SK-MEL-3 tumor cells. The assay can be described thus: Cell growth inhibition assay (CellTiter-Glo), SK-MEL-3. The format is cell-based, Human. The note with it: for IC50: Homo sapiens, SK-MEL3. On the procedure:
as §1, §2, §3

Where a name gives a salt, the structure may show the parent alone.

T1 sequence (P04626 23-1255): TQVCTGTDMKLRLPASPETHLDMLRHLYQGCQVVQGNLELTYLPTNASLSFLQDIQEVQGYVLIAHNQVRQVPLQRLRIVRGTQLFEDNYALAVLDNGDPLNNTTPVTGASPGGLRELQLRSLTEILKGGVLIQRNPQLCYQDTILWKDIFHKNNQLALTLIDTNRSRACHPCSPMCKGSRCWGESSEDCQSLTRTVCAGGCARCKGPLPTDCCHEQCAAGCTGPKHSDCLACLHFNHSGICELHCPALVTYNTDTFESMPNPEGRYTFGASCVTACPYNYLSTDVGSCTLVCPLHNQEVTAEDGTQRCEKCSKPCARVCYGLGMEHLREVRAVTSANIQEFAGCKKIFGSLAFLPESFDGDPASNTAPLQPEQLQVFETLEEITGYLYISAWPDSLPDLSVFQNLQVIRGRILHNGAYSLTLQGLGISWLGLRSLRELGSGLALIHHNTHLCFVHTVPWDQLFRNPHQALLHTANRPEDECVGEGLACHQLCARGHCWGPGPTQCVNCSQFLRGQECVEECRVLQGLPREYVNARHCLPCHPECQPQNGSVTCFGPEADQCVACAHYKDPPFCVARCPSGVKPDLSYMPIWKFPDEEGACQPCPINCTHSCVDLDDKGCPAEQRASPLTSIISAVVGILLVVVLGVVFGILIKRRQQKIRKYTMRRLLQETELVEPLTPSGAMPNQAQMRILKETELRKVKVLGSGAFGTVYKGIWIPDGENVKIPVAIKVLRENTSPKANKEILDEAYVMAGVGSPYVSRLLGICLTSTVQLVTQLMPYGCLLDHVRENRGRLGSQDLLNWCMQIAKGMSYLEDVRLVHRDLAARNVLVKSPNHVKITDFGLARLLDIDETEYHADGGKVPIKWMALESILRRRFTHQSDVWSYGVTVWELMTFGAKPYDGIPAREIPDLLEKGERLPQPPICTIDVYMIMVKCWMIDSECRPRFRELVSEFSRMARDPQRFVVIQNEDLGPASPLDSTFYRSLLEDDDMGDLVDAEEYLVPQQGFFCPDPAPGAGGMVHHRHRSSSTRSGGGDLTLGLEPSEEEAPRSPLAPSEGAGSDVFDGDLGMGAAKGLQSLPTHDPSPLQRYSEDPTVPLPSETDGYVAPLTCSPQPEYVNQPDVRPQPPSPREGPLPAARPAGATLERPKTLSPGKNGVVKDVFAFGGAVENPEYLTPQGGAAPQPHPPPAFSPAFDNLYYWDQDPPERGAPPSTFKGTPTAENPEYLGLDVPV

One may read the IC50 as the point on the concentration scale where inhibition reaches its midpoint. High values mean a need for much substance, low ones inhibition by little substance. With `CCNc1nc(-c2cccc(NS(=O)(=O)c3ccccc3)c2)c(-c2ccnc(Nc3ccc(OCCN4CCCC4)c(F)c3)n2)s1` [Example 1, N-(3-(2-(Ethylamino)-5-{2-[(3-fluoro-4-[[2-(1-pyrrolidinyl)ethyl]oxy}phenyl)amino]-4-pyrimidinyl}-1,3-thiazol-4-yl)phenyl]benzenesulfonamide], the IC50 against ErbB2 and with Colo205 tumor cells was 100 to 1000 nM throughout. Further, the “Activity in A375P F11s Tumor Cells” value in the assay with A375P F11s tumor cells is “++ (activity of between 100 nM and 1 μM in A375P F11s tumor cells)”. Besides, in the assay with SK-MEL-3 tumor cells, the “Activity in SK-MEL-3 Tumor Cells” value is “++ (activity of between 100 nM and 1 μM in SK-MEL-3 tumor cells)”.
As to `COCCN1CCN(c2ccc(Nc3nccc(-c4sc(C(C)C)nc4-c4cccc(NS(=O)(=O)c5ccccc5)c4)n3)cn2)CC1` [Example 6, N-[3-(2-(1-Methylethyl)-5-{2-[(6-{4-[2-(methyloxy)ethyl]-1-piperazinyl}-3-pyridinyl)amino]-4-pyrimidinyl}-1,3-thiazol-4-yl)phenyl]benzenesulfonamide], the IC50 against ErbB2 is 100 to 1000 nM; with Colo205 tumor cells, less than 100 nM; with A375P F11s tumor cells it was less than 100 nM; with SK-MEL-3 tumor cells, less than 100 nM.
For `CC(C)c1nc(-c2cccc(NS(=O)(=O)c3ccccc3)c2)c(-c2ccnc(Nc3ccc(N4CCOCC4)nc3)n2)s1` [Example 8, N-{3-[2-(1-Methylethyl)-5-(2-{[6-(4-morpholinyl)-3-pyridinyl]amino}-4-pyrimidinyl)-1,3-thiazol-4-yl]phenyl}benzenesulfonamide hydrochloride], the IC50 at ErbB2 was greater than 1000 nM; in the assay with Colo205 tumor cells it was less than 100 nM; in the assay on A375P F11s tumor cells, less than 100 nM; in the assay with SK-MEL-3 tumor cells, less than 100 nM.
As to `COc1ccc(Nc2nccc(-c3sc(C(C)C)nc3-c3cccc(NS(=O)(=O)c4ccccc4)c3)n2)cc1N1CCN(CCC#N)CC1` [Example 9, N-{3-[5-(2-{[3-[4-(2-Cyanoethyl)-1-piperazinyl]-4-(methyloxy)phenyl]amino}-4-pyrimidinyl)-2-(1-methylethyl)-1,3-thiazol-4-yl]phenyl}benzenesulfonamide], the IC50 at ErbB2, with Colo205 tumor cells, in the assay on A375P F11s tumor cells and in the assay with SK-MEL-3 tumor cells was less than 100 nM throughout.
Regarding `CC(=O)N1CCN(c2ccc(Nc3nccc(-c4sc(C(C)C)nc4-c4cccc(NS(=O)(=O)c5ccc(F)cc5)c4)n3)cn2)CC1` [Example 10, N-{3-[5-(2-{[6-(4-Acetyl-1-piperazinyl)-3-pyridinyl]amino}-4-pyrimidinyl)-2-(1-methylethyl)-1,3-thiazol-4-yl]phenyl}-4-fluorobenzenesulfonamide], the IC50 on ErbB2 was greater than 1000 nM; in the assay on Colo205 tumor cells it was less than 100 nM; in the assay with A375P F11s tumor cells it was less than 100 nM; in the assay with SK-MEL-3 tumor cells, 100 to 1000 nM.
On to `CC(=O)N1CCN(c2ccc(Nc3nccc(-c4sc(C(C)C)nc4-c4cccc(NS(=O)(=O)c5cccc(F)c5)c4)n3)cn2)CC1` [Example 11, N-{3-[5-(2-{[6-(4-Acetyl-1-piperazinyl)-3-pyridinyl]amino}-4-pyrimidinyl)-2-(1-methylethyl)-1,3-thiazol-4-yl]phenyl}-3-fluorobenzenesulfonamide], for which the IC50 against ErbB2 is 100 to 1000 nM; with Colo205 tumor cells, less than 100 nM; in the assay with A375P F11s tumor cells, less than 100 nM; in the assay on SK-MEL-3 tumor cells, less than 100 nM.
As to `CC(=O)N1CCN(c2ccc(Nc3nccc(-c4sc(C(C)C)nc4-c4cccc(NS(=O)(=O)c5ccccc5F)c4)n3)cn2)CC1` [Example 12, N-{3-[5-(2-{[6-(4-Acetyl-1-piperazinyl)-3-pyridinyl]amino}-4-pyrimidinyl)-2-(1-methylethyl)-1,3-thiazol-4-yl]phenyl}-2-fluorobenzenesulfonamide], the IC50 on ErbB2 is 100 to 1000 nM; in the assay on Colo205 tumor cells, less than 100 nM; with A375P F11s tumor cells it was less than 100 nM; with SK-MEL-3 tumor cells it was less than 100 nM.
For `CC(C)c1nc(-c2cccc(NS(=O)(=O)c3c(F)cccc3F)c2)c(-c2ccnc(Nc3ccc(OC4CCN(CCS(C)(=O)=O)CC4)c(F)c3)n2)s1` [Example 13, 2,6-Difluoro-N-{3-[5-(2-{[3-fluoro-4-({1-[2-(methylsulfonyl)ethyl]-4-piperidinyl}oxy)phenyl]amino}-4-pyrimidinyl)-2-(1-methylethyl)-1,3-thiazol-4-yl]phenyl}benzenesulfonamide hydrochloride], the IC50 against ErbB2 was greater than 1000 nM; in the assay with Colo205 tumor cells, less than 100 nM; in the assay on A375P F11s tumor cells, less than 100 nM; in the assay on SK-MEL-3 tumor cells, less than 100 nM.
Consider `CC(C)c1nc(-c2cccc(NS(=O)(=O)c3c(F)cccc3F)c2)c(-c2ccnc(Nc3ccc(N4CCOCC4)c(C(=O)O)c3)n2)s1` [Example 14, 5-({4-[4-(3-{[(2,6-Difluorophenyl)sulfonyl]amino}phenyl)-2-(1-methylethyl)-1,3-thiazol-5-yl]-2-pyrimidinyl}amino)-2-(4-morpholinyl)benzoic acid], for which the IC50 was greater than 1000 nM on ErbB2, less than 100 nM in the assay on Colo205 tumor cells, less than 100 nM in the assay with A375P F11s tumor cells and less than 100 nM in the assay on SK-MEL-3 tumor cells.
Turning to `CC(C)c1nc(-c2cccc(NS(=O)(=O)c3c(F)cccc3F)c2)c(-c2ccnc(Nc3ccc(N4CCN5CCOC[C@H]5C4)nc3)n2)s1` [Example 15], the IC50 at ErbB2 was 100 to 1000 nM; in the assay with Colo205 tumor cells, less than 100 nM; with A375P F11s tumor cells, less than 100 nM; in the assay on SK-MEL-3 tumor cells it was less than 100 nM.
`CC(C)c1nc(-c2cccc(NS(=O)(=O)c3c(F)cccc3F)c2)c(-c2ccnc(Nc3ccc(N4CCN(CCS(C)(=O)=O)CC4)c(F)c3)n2)s1` [Example 16, 2,6-Difluoro-N-{3-[5-{2-[(3-fluoro-4-{4-[2-(methylsulfonyl)ethyl]-1-piperazinyl}phenyl)amino]-4-pyrimidinyl}-2-(1-methylethyl)-1,3-thiazol-4-yl]ohenyl}benzenesulfonamide hydrochloride]: the IC50 was 100 to 1000 nM at ErbB2, less than 100 nM with Colo205 tumor cells, less than 100 nM with A375P F11s tumor cells and less than 100 nM with SK-MEL-3 tumor cells.
For the compound `CC(C)c1nc(-c2cccc(NS(=O)(=O)c3c(F)cccc3F)c2)c(-c2ccnc(Nc3ccc(N4CCOCC4)nc3)n2)s1` [Example 17, 2,6-Difluoro-N-{3-[2-(1-methylethyl)-5-(2-{[6-(4-morpholinyl)-3-pyridinyl]amino}-4-pyrimidinyl)-1,3-thiazol-4-yl]phenyl}benzenesulfonamide], the half-maximal inhibitory concentration (IC50) at ErbB2 is greater than 1000 nM; with Colo205 tumor cells it was less than 100 nM; in the assay on A375P F11s tumor cells, less than 100 nM; in the assay on SK-MEL-3 tumor cells it was less than 100 nM.
As to `CC(C)c1nc(-c2cncc(NS(=O)(=O)c3c(F)cccc3F)c2)c(-c2ccnc(Nc3ccc(N4CCOCC4)nc3)n2)s1` [Example 47], the IC50 in the assay on Colo205 tumor cells, in the assay on A375P F11s tumor cells and in the assay with SK-MEL-3 tumor cells was less than 100 nM in each case.
As to `CS(=O)(=O)CCN1CCN(c2ccc(Nc3nccc(-c4oc(N5CCCC5)nc4-c4ccc(F)c(NS(=O)(=O)c5c(F)cccc5F)c4)n3)cc2F)CC1` [Example 119], the IC50 at ErbB2, in the assay on Colo205 tumor cells and in the assay on A375P F11s tumor cells was 100 to 1000 nM in each case.

The values are drawn from patent publication US20110319392A1, “Thiazole Sulfonamide And Oxazole Sulfonamide Kinase Inhibitors” (priority 2009, published 2011).
